We go through 7 compounds from patent US20250214978A1, “AT2R AGONIST” (WUHAN HUMANWELL INNOVATIVE DRUG RESEARCH AND DEVELOPMENT …, priority 2022, published 2025).

Series [1] addresses AT2R (Homo sapiens (Human), UniProt P50052). Kind of series: Binding assay of compounds to AT2R (Tag-lite HTRF ligand binding kit). Conditions: 1 hour incubation at room temperature. Here is the method:
The assay was performed in accordance with the instruction manual of Angiotensin AT2 Receptor Ligand Binding Assay Kit (#C1TT1AT2, Cisbio). First, a compound stock solution (10 mM) was diluted in a gradient at a 5× dilution ratio (including 10 concentrations, each with two replicates). 160 nL of compounds at different concentrations was added to a 384-well plate. 40 μL of 1×TLB was added to each well, and the mixture was shaken at room temperature for 15 minutes. 15 mL centrifuge tube added with 5 mL of 1×TLB was prepared in advance. The frozen labeled cells were thawed in a water bath at 37° C. (for 1 to 2 minutes), and the thawed cells were quickly transferred to the above 15 mL centrifuge tube. The mixture was mixed well and centrifuged at 1,000 g at room temperature for 5 minutes. The supernatant was removed, and the cells were resuspended by adding 2.7 mL 1×TLB. A new 384-well plate was taken, and 10 μL of mixed cells were added into the corresponding wells according to the assay design. 5 μL of 4× compound solution and 5 μL of 4× Tag-lite red fluorescent labeled ligand were added to each well. After incubation at room temperature for 1 hour, data were read using EnVision with an HTRF mode. The excitation light intensities at 665 nM and 615 nM in each well were read respectively, and the ratio was calculated (Ratio=A665nMIB615 nM). The IC50 value was calculated by means of GraphPad Prism8 software, where X represents logarithmic value of compound concentration; and Y represents ratio of A665 nM/B615 nM.

Series [2] concerns the target CYP2C9 (Homo sapiens (Human), UniProt P11712). As to the kind of experiment: CYP inhibition assay in mixed human liver microsomes. The format is in vitro ADME. The note with it: mixed (pooled) human liver microsomes, read-out: Inhibition rate % CYP2C9. Here is the method: (§1) The inhibitory effects of the compounds on seven enzymes, i.e., CYP1A2, CYP2C9, CYP2C19, CYP2D6, CYP3A4 (midazolam), CYP2B6, and CYP2C8, were evaluated at a concentration of 10 μM. Mixed human liver microsomes, which were previously stored in a −80° C. refrigerator before use, were taken out and thawed in a water bath at 37° C. before use, and placed on ice for further operation. 100 μL of microsome working solution was taken, and added with 2 μL of test product or positive inhibitor working solution. 2 μL of solvent was added to the solvent control. The mixture was pre-incubated in a water bath at 37° C. for 10 minutes. After preincubation, 98 μL of NADPH regeneration solution was added to all samples to initiate the reaction. Then, the samples were put back into the water bath and incubated for a period of time. The reaction was quenched with 200 μL of stop solution. The plate was centrifuged at 3,220 g for 10 minutes, 100 μL of supernatant was transferred, and 100 μL of water was added and mixed well to the assay plate for LC/MS/MS analysis.

The target in series [3] is CYP2C19 (Homo sapiens (Human), UniProt P33261). The series is described as above. The format is in vitro ADME. Conditions: mixed (pooled) human liver microsomes, read-out: Inhibition rate % CYP2C19. Here is the method: as §1
For series [4], the target named is CYP1A2 (Homo sapiens (Human), UniProt P05177). The series is described as above. The format is in vitro ADME. Here is the method: as §1
Series [5] concerns the target CYP2C8 (Homo sapiens (Human), UniProt P10632). The series is described as above. The format is in vitro ADME. Conditions: mixed (pooled) human liver microsomes, read-out: Inhibition rate % CYP2C8. How it is done:
as §1

Series [6] concerns the target CYP3A4 (Homo sapiens (Human), UniProt P08684). The series is described as above. It counts as in vitro ADME. Conditions: mixed (pooled) human liver microsomes, probe midazolam, read-out: Inhibition rate % CYP3A4 (midazolam). Here is the method:
as §1

Series [7] addresses CYP2D6 (Homo sapiens (Human), UniProt P10635). The description is as above. The format is in vitro ADME. Conditions: mixed (pooled) human liver microsomes, read-out: Inhibition rate % CYP2D6. Here is the method:
as §1

Series [8] addresses CYP2B6 (Homo sapiens (Human), UniProt P20813). Described as above. The format is in vitro ADME. Conditions: mixed (pooled) human liver microsomes, read-out: Inhibition rate % CYP2B6. How it is done:
as §1

The nature of series [9]: Free plasma protein binding (PPB) assay, equilibrium dialysis. It counts as in vitro ADME. The note with it: dialysis 6 hours at 37° C. How it is done: The dried dialysis membrane was soaked in ultrapure water for 1 hour, then soaked in 20% ethanol for 20 minutes, and then rinsed with ultrapure water for 2 to 3 times. Finally, the dried dialysis membrane was soaked in ultrapure water for 20 minutes for later use. The frozen plasma was thawed in a water bath at 37° C. for about 20 minutes. pH value of the plasma was measured after thawing was complete, and was adjusted to 7.4 with 1% phosphoric acid solution or 0.1M sodium hydroxide solution. […] The pretreated dialysis membrane was assembled into the dialysis plate according to product instructions, and 100 μL of receiving solution (100 mM phosphate buffer solution plus 0.002% Tween 80) was added to one side of the permeable membrane in each dialysis well. 20 μL of each of the final solution of the test compound and the final solution of the control compound were taken in a 96-well sample plate, two duplicate samples were made, and T0 sample was obtained, which was stored in a −20° C. refrigerator. Another 100 μL of each of the above-mentioned final solutions were taken to the other side of the membrane in the dialysis device, two duplicate samples were made, and incubated at 37° C. with constant shaking for 6 hours. After 6 hours of incubation, 20 μL of each of the dialyzed receiving solution and the administered plasma were taken, two duplicate samples were made, and sample A and sample B were obtained. Corresponding blank plasma or receiving solution of corresponding volume were added to sample B and sample A, respectively, allowing the volume ratio of plasma to buffer in each sample well to be 1:1. 300 μL of sample-containing internal standard acetonitrile solution was added to all the sample wells. The mixture was mixed well, and centrifuged at 5,500×g for 10 minutes. 150 μL of corresponding ultrapure water was added to the corresponding sample wells of the 96-well sample plate. 150 μL of the supernatant was taken into the sample wells, and mixed well. Then, LC/MS/MS analysis was performed. The calculation formula of fu is: […]
where: CR: peak area ratio measured in the receiving chamber well CD: peak area ratio measured in the supply chamber well.

The nature of series [10]: Liver microsome stability assay. Conditions: Mouse liver microsomes; read-out: T1/2 (min) Mouse. The format is in vitro ADME.
Series [11] in a line: Liver microsome stability assay. The format is in vitro ADME. Conditions: dog; Canine liver microsomes; read-out: T1/2 (min) Canine.
Series [12] can be described thus: Liver microsome stability assay. It counts as in vitro ADME. The note with it: Rat liver microsomes; read-out: T1/2 (min) Rat.
Series [13] is described as follows: Liver microsome stability assay. It counts as in vitro ADME. Conditions: Human liver microsomes, NADPH, 37° C.; read-out: T1/2 (min) Human. Here is the method:
The human liver microsome stability assay was performed by co-incubating the compound with human liver microsomes in vitro. The test compounds were first prepared as 10 mM stock solutions in DMSO solvent, and then diluted to 0.5 mM with acetonitrile. Human liver microsomes (Corning) were diluted with PBS to prepare a microsome/buffer solution, and this solution was used to dilute 0.5 mM of the compound to prepare a working solution. In the working solution, a concentration of the compound was 1.5 μM and a concentration of the human liver microsome was 0.75 mg/ml. A deep-well plate was taken, 30 μL of working solution was added to each well of the plate, and then 15 μL of pre-heated NADPH solution (6 mM) was added to start the reaction. The mixture was incubated at 37° C. 135 μL of acetonitrile was added to the corresponding wells to stop the reaction at 0 minute, 5 minutes, 15 minutes, 30 minute, and 45 minutes of incubation. Subsequent to the stop of the reaction by means of acetonitrile at the last time point of 45 minute, the plate was vortexed for 10 minutes (600 rpm/min) and then centrifuged for 15 minutes. […] The peak area ratios of the compound at 5 minutes, 15 minutes, 30 minutes, and 45 minutes were compared with the peak area ratio at 0 minute, and the remaining percentage of the compound at each time point was calculated. T1/2 was calculated using Graphpad8 software.

The mark [14] stands for this setting: dog, pH 7.4, Canine plasma, read-out: fu % Canine.
The mark [15] stands for this setting: pH 7.4, Human plasma, read-out: fu % Human.
The mark [16] stands for this setting: pH 7.4, Mouse plasma, read-out: fu % Mouse.
Setting [17] is: pH 7.4, Rat plasma, read-out: fu % Rat.

The structures appear in SMILES notation. Like-named read-outs stand apart in the source and are kept apart here.

Chain of AT2R (P50052 whole entry): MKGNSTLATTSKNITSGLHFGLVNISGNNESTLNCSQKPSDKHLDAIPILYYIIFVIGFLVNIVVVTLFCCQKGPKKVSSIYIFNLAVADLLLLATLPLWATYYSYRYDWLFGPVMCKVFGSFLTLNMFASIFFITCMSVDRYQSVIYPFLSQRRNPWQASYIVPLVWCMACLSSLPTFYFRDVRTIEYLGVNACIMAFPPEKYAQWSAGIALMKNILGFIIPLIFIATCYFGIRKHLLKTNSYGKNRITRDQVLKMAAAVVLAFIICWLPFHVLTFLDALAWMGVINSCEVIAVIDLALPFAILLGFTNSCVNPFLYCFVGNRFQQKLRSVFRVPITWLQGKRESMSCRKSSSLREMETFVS
Chain of CYP3A4 (P08684 whole entry): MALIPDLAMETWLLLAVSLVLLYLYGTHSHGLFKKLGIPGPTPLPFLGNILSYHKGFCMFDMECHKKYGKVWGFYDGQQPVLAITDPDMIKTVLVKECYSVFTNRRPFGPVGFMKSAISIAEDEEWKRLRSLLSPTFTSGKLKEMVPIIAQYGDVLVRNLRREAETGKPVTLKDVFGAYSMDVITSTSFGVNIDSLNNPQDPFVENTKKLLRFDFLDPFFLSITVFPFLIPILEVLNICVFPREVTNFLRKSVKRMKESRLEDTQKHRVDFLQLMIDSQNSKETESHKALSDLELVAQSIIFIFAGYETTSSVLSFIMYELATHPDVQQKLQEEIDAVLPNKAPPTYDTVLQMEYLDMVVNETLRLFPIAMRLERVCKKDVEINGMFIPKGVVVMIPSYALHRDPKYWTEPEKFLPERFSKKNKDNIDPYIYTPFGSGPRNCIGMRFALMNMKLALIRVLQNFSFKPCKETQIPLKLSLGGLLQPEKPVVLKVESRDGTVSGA
Chain of CYP2C8 (P10632 whole entry): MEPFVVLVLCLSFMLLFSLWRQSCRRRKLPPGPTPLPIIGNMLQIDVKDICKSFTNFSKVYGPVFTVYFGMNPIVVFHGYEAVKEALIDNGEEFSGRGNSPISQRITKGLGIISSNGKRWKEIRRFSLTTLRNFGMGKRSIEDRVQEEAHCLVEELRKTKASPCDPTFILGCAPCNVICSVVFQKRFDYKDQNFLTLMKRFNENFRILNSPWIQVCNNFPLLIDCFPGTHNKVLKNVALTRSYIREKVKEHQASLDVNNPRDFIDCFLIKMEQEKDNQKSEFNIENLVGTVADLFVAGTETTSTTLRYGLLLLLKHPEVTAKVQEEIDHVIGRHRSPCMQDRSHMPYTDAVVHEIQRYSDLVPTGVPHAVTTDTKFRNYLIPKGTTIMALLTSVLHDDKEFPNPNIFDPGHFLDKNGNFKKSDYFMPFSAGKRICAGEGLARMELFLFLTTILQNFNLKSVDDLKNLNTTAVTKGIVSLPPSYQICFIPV
Chain of CYP2B6 (P20813 whole entry): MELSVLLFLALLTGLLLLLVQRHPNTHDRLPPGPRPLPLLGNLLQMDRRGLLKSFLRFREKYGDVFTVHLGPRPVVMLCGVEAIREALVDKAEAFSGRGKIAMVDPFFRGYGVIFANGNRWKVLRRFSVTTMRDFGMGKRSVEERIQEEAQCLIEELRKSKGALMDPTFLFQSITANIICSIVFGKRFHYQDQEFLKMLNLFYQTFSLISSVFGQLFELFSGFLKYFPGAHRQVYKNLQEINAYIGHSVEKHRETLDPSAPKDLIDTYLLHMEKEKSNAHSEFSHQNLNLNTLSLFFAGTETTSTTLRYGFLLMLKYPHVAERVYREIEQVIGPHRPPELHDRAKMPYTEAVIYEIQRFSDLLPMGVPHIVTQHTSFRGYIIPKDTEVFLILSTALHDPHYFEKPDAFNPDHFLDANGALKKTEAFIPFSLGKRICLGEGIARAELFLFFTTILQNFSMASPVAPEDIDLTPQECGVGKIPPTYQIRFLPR
Chain of CYP2C19 (P33261 whole entry): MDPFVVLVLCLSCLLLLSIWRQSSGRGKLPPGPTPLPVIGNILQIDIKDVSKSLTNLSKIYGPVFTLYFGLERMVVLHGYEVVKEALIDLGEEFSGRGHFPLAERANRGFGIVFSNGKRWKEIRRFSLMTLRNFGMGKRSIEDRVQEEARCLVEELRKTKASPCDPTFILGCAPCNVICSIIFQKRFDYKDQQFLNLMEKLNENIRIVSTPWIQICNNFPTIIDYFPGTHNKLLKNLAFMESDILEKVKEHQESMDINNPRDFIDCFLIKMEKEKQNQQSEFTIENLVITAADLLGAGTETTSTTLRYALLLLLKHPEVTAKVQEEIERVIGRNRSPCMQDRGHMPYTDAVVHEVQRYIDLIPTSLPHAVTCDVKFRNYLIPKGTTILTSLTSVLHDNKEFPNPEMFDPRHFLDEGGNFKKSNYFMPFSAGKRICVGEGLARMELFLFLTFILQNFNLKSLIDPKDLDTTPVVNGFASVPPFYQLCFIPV
Chain of CYP2D6 (P10635 whole entry): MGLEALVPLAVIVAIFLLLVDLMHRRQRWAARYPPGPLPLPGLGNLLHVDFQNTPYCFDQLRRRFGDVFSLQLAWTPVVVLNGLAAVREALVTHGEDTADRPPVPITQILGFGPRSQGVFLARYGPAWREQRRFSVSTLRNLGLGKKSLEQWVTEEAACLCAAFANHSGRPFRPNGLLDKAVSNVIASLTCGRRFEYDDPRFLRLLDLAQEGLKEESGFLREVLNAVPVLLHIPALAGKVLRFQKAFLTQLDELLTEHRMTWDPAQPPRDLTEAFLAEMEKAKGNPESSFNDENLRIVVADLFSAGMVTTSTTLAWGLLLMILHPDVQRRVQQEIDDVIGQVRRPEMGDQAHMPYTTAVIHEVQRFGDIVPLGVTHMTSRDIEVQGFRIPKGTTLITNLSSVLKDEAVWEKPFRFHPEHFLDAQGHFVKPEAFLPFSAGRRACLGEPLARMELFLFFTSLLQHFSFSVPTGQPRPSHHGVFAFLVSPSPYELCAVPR
Chain of CYP1A2 (P05177 whole entry): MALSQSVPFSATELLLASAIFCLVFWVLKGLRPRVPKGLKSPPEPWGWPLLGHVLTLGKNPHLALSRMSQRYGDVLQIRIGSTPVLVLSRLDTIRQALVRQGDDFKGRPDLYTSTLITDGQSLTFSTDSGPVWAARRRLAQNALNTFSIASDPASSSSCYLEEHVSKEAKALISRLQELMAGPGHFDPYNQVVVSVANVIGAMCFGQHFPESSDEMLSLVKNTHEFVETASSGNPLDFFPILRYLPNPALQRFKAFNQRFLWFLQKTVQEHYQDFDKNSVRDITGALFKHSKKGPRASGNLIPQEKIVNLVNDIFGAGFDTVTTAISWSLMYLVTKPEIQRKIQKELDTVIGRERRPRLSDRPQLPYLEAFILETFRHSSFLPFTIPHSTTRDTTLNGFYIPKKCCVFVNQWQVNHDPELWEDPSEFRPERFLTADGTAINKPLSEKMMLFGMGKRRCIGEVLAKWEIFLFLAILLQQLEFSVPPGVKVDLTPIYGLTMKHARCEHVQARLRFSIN
Chain of CYP2C9 (P11712 whole entry): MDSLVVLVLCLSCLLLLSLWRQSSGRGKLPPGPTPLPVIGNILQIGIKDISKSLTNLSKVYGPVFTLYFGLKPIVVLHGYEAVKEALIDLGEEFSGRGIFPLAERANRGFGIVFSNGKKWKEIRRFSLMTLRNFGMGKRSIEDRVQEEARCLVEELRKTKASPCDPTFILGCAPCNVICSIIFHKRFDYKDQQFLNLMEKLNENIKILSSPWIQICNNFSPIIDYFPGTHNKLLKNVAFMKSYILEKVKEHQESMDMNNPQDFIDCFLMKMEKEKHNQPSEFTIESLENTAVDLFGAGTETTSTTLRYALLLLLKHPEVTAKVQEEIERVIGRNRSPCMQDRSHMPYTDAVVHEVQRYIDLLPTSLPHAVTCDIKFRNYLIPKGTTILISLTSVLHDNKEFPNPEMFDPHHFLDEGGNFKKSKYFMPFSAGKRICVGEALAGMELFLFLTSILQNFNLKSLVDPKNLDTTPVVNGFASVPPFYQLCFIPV

Compound `COC(=O)NS(=O)(=O)c1sc(CC(C)C)cc1-c1ccc(Cn2ccnc2C)cc1C` [Compound I-11, Methyl (5-isobutyl-3-(2-methyl-4-((2-methyl-1H-imidazol-1-yl)methyl)phenyl)thiophen-2-yl)sulfonylcarbamate] gave an IC50 in series [1] of 1.51 nM. For the same compound, the inhibition at 10 µM stood at 28.3% in [2]; 11% in [3]; 0% in series [4]; 12.6% in series [5]; 13.4% in series [6]; 1.97% in series [7]. For the same compound, the inhibition at 10 µM in series [8] is 27.6%. Moreover, the fraction unbound at 6 h, 1 μM in series [9] (setting [14]) turned out to be 0.0185; in [9] (setting [15]) it was 0.0039; in series [9] (setting [16]), 0.0121; in [9] (setting [17]) it was 0.0097.

As to `CCCCOC(=O)NS(=O)(=O)c1sc(CC(C)C)cc1-c1ccc(Cn2ccnc2C)c(C#N)c1` [Compound I-12, Butyl ((3-(3-cyano-4-((2-methyl-1H-imidazol-1-yl)methyl)phenyl)-5-isobutylthiophen-2-yl)sulfonyl)carbamate], the 50% inhibitory concentration (IC50) in series [1] worked out at 1.35 nM. The inhibition at 10 µM in series [2] came to 45.8%; in [3], 30.2%; in [4], 4.18%; in series [5], 39.5%; in [6] it was 21.1%; in series [7] it was 10.4%. Also, the inhibition at 10 µM in series [8] is 31.6%.

In [1], `COC(=O)NS(=O)(=O)c1sc(CC(C)C)cc1-c1ccc(Cn2ccnc2C(C)(C)C)c(C#N)c1` [Compound I-13, Methyl ((3-(4-((2-(tert-butyl)-1H-imidazol-1-yl)methyl)-3-cyanophenyl)-5-isobutylthiophen-2-yl)sulfonyl)carbamate] had a concentration for half-maximal inhibition (IC50) of 1.72 nM. The inhibition at 10 µM in series [2] is 20.2%; in [3], 11.7%; in series [4], 0.54%; in series [5] it was 82.7%; in [6] it was 0%; in [7] it was 6.5%. Further, in series [8], the inhibition at 10 µM is 18.3%. Moreover, the values for the fraction unbound at 6 h, 1 μM in [9] (setting [14]), in series [9] (setting [16]) and in series [9] (setting [17]) were 0.0116, 0.0211 and 0.0043, respectively.

The compound `CCc1nccn1Cc1ccc(-c2cc(CC(C)C)sc2S(=O)(=O)NC(=O)OC)cc1C#N` [Compound I-14, Methyl ((3-(3-cyano-4-((2-ethyl-1H-imidazol-1-yl)methyl)phenyl)-5-isobutylthiophen-2-yl)sulfonyl)carbamate] yielded an IC50 in [1] of 1.68 nM. Also, the inhibition at 10 µM in series [2] was 32.8%; in series [3] it was 21.7%; in series [4], 0%; in series [5], 50.6%; in [6], 0%; in series [7], 11.4%. Besides, in series [8], the inhibition at 10 µM came to 16.9%. For the same compound, the fraction unbound at 6 h, 1 μM in series [9] (setting [16]) came to 0.0427.

`COC(=O)NS(=O)(=O)c1sc(CC(C)C)c(C)c1-c1ccc(Cn2ccnc2C)cc1` [Compound I-16, Methyl (5-isobutyl-4-methyl-3-(4-((2-methyl-1H-imidazol-1-yl)methyl)phenyl)thiophen-2-yl)sulfonylcarbamate]: the half-life at 1 μM in series [10] amounted to 1730 min; in [11], 578 min; in [12], 83.5 min; in [13], 239 min. The half-inhibitory concentration (IC50) in series [1] stood at 2.68 nM. Also, the inhibition at 10 µM was determined as 46.8% in [2]; 35.3% in series [3]; 25% in series [4]; 33.6% in [5]; 6.78% in [6]; 9.54% in series [7]. Besides, in [8], the inhibition at 10 µM was found to be 11.1%. Further, the figures for the fraction unbound at 6 h, 1 μM in [9] (setting [14]), in series [9] (setting [15]) and in [9] (setting [17]) were 0.0349, 0.0126 and 0.0109, respectively.

Consider `COC(=O)NS(=O)(=O)c1sc(CC(C)C)c(C)c1-c1ccc(Cn2ccnc2C)c(C)c1` [Compound I-35, Methyl ((5-isobutyl-4-methyl-3-(3-methyl-4-((2-methyl-1H-imidazol-1-yl)methyl)phenyl)thiophen-2-yl)sulfonyl)carbamate], for which the IC50 in series [1] was 3.4 nM.

In the case of `CCCCOC(=O)NS(=O)(=O)c1sc(CC(C)C)cc1-c1ccc(Cn2ccnc2C)cc1C` [Compound I-36, Butyl ((5-isobutyl-3-(2-methyl-4-((2-methyl-1H-imidazol-1-yl)methyl)phenyl)thiophen-2-yl)sulfonyl)carbamate], in [1], the IC50 amounted to 2.39 nM.
